Measured values from patent publication US9700516B2, “Compositions and methods for reducing overdose” (priority 2014, dated 2017).

Assay: Effect of alkalinizing agents on the pH of a solution of 0.1 N HCl with a starting pH of 2.0
Type: physicochemical
Procedure: Various alkalinizing agents were added to a solution of 0.1 N HCl with a starting pH of 2.0 and the pH of the solution was tested at different time points.

Structure (SMILES): [Mg+2].[OH-].[OH-] [magnesium hydroxide]
- pH (60 mg per 320 mL, 2 min): 2.29
- pH (60 mg per 320 mL, 3 min): 2.41
- pH (60 mg per 320 mL, 4 min): 2.47
- pH (60 mg per 320 mL, 5 min): 2.48
- pH (60 mg per 320 mL, 6 min): 2.48
- pH (60 mg per 320 mL, 7 min): 2.49
- pH (60 mg per 320 mL, 8 min): 2.49
- pH (60 mg per 320 mL, 9 min): 2.49
- pH (60 mg per 320 mL, 10 min): 2.49
- pH (60 mg per 320 mL, 20 min): 2.50
- pH (60 mg per 500 mL, 2 min): 2.12
- pH (60 mg per 500 mL, 3 min): 2.17
- pH (60 mg per 500 mL, 4 min): 2.18
- pH (60 mg per 500 mL, 5 min): 2.19
- pH (60 mg per 500 mL, 6 min): 2.19
- pH (60 mg per 500 mL, 7 min): 2.19
- pH (60 mg per 500 mL, 8 min): 2.19
- pH (60 mg per 500 mL, 9 min): 2.19
- pH (60 mg per 500 mL, 10 min): 2.19
- pH (60 mg per 500 mL, 20 min): 2.19
- effect on pH of the solution (71 mg/200 ml, 81 mg/200 ml and 100 mg/200 ml): raised the pH of the solution to neutral or higher
- pH (90 mg per 320 mL, 2 min): 2.37
- pH (90 mg per 320 mL, 3 min): 2.55
- pH (90 mg per 320 mL, 4 min): 2.77
- pH (90 mg per 320 mL, 5 min): 3.06
- pH (90 mg per 320 mL, 6 min): 3.13
- pH (90 mg per 320 mL, 7 min): 3.22
- pH (90 mg per 320 mL, 8 min): 3.28
- pH (90 mg per 320 mL, 9 min): 3.31
- pH (90 mg per 320 mL, 10 min): 3.33
- pH (90 mg per 320 mL, 20 min): 3.34
- pH (100 mg per 320 mL, 2 min): 2.36
- pH (100 mg per 320 mL, 3 min): 2.53
- pH (100 mg per 320 mL, 4 min): 2.74
- pH (100 mg per 320 mL, 5 min): 3.07
- pH (100 mg per 320 mL, 6 min): 3.39
- pH (100 mg per 320 mL, 7 min): 3.73
- pH (100 mg per 320 mL, 8 min): 4.26
- pH (100 mg per 320 mL, 9 min): 5.41
- pH (100 mg per 320 mL, 10 min): 5.86
- pH (100 mg per 320 mL, 20 min): 6.51
- pH (100 mg per 500 mL, 2 min): 2.21
- pH (100 mg per 500 mL, 3 min): 2.33
- pH (100 mg per 500 mL, 4 min): 2.38
- pH (100 mg per 500 mL, 5 min): 2.40
- pH (100 mg per 500 mL, 6 min): 2.40
- pH (100 mg per 500 mL, 7 min): 2.41
- pH (100 mg per 500 mL, 8 min): 2.41
- pH (100 mg per 500 mL, 9 min): 2.41
- pH (100 mg per 500 mL, 10 min): 2.41
- pH (100 mg per 500 mL, 20 min): 2.41
- effect on pH of the solution (100 mg/320 ml, 180 mg/500 ml, 120 mg/320 ml, 200 mg/500 ml and 240 mg/500 ml): rapidly raised the pH of the solution to neutral or higher
- pH (120 mg per 320 mL, 2 min): 2.49
- pH (120 mg per 320 mL, 3 min): 2.87
- pH (120 mg per 320 mL, 4 min): 3.54
- pH (120 mg per 320 mL, 5 min): 5.75
- pH (120 mg per 320 mL, 6 min): 6.65
- pH (120 mg per 320 mL, 7 min): 7.81
- pH (120 mg per 320 mL, 8 min): 8.55
- pH (120 mg per 320 mL, 9 min): 8.83
- pH (120 mg per 320 mL, 10 min): 8.94
- pH (120 mg per 320 mL, 20 min): 9.20
- pH (120 mg per 500 mL, 2 min): 2.21
- pH (120 mg per 500 mL, 3 min): 2.35
- pH (120 mg per 500 mL, 4 min): 2.44
- pH (120 mg per 500 mL, 5 min): 2.52
- pH (120 mg per 500 mL, 6 min): 2.57
- pH (120 mg per 500 mL, 7 min): 2.59
- pH (120 mg per 500 mL, 8 min): 2.59
- pH (120 mg per 500 mL, 9 min): 2.59
- pH (120 mg per 500 mL, 10 min): 2.59
- pH (120 mg per 500 mL, 20 min): 2.60
- effect on pH of the solution (160 mg/320 ml (0.5 mg/ml)): rapidly raised the pH of the solution to neutral or higher
- pH (180 mg per 500 mL, 2 min): 2.56
- pH (180 mg per 500 mL, 3 min): 3.09
- pH (180 mg per 500 mL, 4 min): 3.90
- pH (180 mg per 500 mL, 5 min): 5.69
- pH (180 mg per 500 mL, 6 min): 6.28
- pH (180 mg per 500 mL, 7 min): 6.64
- pH (180 mg per 500 mL, 8 min): 7.01
- pH (180 mg per 500 mL, 9 min): 7.61
- pH (180 mg per 500 mL, 10 min): 8.25
- pH (180 mg per 500 mL, 20 min): 9.07
- pH (200 mg per 500 mL, 2 min): 2.48
- pH (200 mg per 500 mL, 3 min): 2.81
- pH (200 mg per 500 mL, 4 min): 3.54
- pH (200 mg per 500 mL, 5 min): 5.42
- pH (200 mg per 500 mL, 6 min): 6.63
- pH (200 mg per 500 mL, 7 min): 7.99
- pH (200 mg per 500 mL, 8 min): 8.86
- pH (200 mg per 500 mL, 9 min): 9.07
- pH (200 mg per 500 mL, 10 min): 9.18
- pH (200 mg per 500 mL, 20 min): 9.41
- pH (240 mg per 500 mL, 2 min): 2.54
- pH (240 mg per 500 mL, 3 min): 3.14
- pH (240 mg per 500 mL, 4 min): 5.90
- pH (240 mg per 500 mL, 5 min): 7.73
- pH (240 mg per 500 mL, 6 min): 9.09
- pH (240 mg per 500 mL, 7 min): 9.35
- pH (240 mg per 500 mL, 8 min): 9.47
- pH (240 mg per 500 mL, 9 min): 9.54
- pH (240 mg per 500 mL, 10 min): 9.59
- pH (240 mg per 500 mL, 20 min): 9.71
- pH of the solution (all tested amounts, over the times tested): above 2.0
